Measurements reported in ChEMBL document CHEMBL3991945, “TASPASE1 inhibitors and their uses” (2013).
Activity calls are given as the source filed them. Residues, ends and D or L forms follow the SMILES beside them. *: point of attachment. CH2Cl = ClC*

Tests used:
Threonine aspartase 1 = target: T1, Threonine aspartase 1 (Homo sapiens, UniProt Q9H6P5); assay: Inhibition of recombinant Taspase1 (unknown origin) using [35S]-methionine labeled human MLL1 (2400-2900 residues) as substrate preincubated for 30 mins followed by substrate addition measured after 30 mins by SDS-PAGE based autoradiography
T1 sequence (Q9H6P5 whole entry): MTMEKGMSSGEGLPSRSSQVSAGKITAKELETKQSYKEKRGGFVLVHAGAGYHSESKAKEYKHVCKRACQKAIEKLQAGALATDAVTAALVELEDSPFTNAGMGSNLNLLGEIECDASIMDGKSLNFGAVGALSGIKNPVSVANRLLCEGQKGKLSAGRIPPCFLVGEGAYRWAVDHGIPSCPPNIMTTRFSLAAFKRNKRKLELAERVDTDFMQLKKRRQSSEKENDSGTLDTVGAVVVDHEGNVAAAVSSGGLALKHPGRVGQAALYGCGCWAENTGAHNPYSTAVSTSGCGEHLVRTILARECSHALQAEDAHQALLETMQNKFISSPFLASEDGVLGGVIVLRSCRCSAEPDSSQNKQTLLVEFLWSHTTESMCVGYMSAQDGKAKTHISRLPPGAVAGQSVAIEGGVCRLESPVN

SF-268 = assay: Growth inhibition of human SF268 cells expressing Taspase1; assay type: functional, cell-based
MEF [1] = assay: Growth inhibition of SV40 transformed Taspase1 deficient MEF after 2 days by MTT assay; assay type: functional, cell-based; settings: Mus musculus
[2] = target: T2, Threonine aspartase 1 (Homo sapiens) (UniProt Q9H6P5); assay: Covalent irreversible inhibition of recombinant Taspase1 (unknown origin) at 0.1 mM using [35S]-methionine labeled human MLL1 (2400-2900 residues) as substrate preincubated for 15 to 60 mins followed by substrate addition measured after 30 mins by SDS-PAGE based autoradiography
T2 sequence (whole entry): T1 sequence (Q9H6P5 whole entry)

MDA-MB-231 = assay: Growth inhibition of human MDA-MB-231 cells expressing Taspase1; assay type: functional, cell-based
SNB-75 = assay: Growth inhibition of human SNB75 cells expressing Taspase1; assay type: functional, cell-based
SF-539 = assay: Growth inhibition of human SF539 cells expressing Taspase1; assay type: functional, cell-based
Caspase-8 (Homo sapiens) = Caspase-8 (Homo sapiens) (UniProt Q14790); assay: Inhibition of recombinant caspase8 (unknown origin) at 1 mM using [35S]-methionine labeled p22 BID as substrate preincubated for 30 mins followed by substrate addition measured after 2 hrs by SDS-PAGE based autoradiography
Sequence of Caspase-8 (Homo sapiens) (Q14790 217-374 limits assumed): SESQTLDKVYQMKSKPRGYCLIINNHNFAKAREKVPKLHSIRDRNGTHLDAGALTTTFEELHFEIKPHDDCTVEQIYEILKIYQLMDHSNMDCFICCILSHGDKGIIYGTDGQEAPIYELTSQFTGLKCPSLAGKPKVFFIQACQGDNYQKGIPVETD
Sequence of Caspase-8 (Homo sapiens) (Q14790 385-479 limits assumed): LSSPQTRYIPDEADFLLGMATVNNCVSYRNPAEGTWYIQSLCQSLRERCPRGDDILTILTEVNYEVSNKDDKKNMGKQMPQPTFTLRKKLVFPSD

Hs-578T = assay: Growth inhibition of human Hs578T cells expressing Taspase1; assay type: functional, cell-based
U-251 = assay: Growth inhibition of human U251 cells expressing Taspase1; assay type: functional, cell-based
SF-295 = assay: Growth inhibition of human SF295 cells expressing Taspase1; assay type: functional, cell-based
BT-549 = assay: Growth inhibition of human BT549 cells expressing Taspase1; assay type: functional, cell-based
[3] = target: T2, Threonine aspartase 1 (Homo sapiens); assay: Inhibition of recombinant Taspase1 (unknown origin) at 1 mM using [35S]-methionine labeled human MLL1 (2400-2900 residues) as substrate preincubated for 30 mins followed by substrate addition measured after 30 mins by SDS-PAGE based autoradiography
[4] = target: T2, Threonine aspartase 1 (Homo sapiens); assay: Inhibition of recombinant Taspase1 (unknown origin) at 10 uM using [35S]-methionine labeled human MLL1 (2400-2900 residues) as substrate preincubated for 30 mins followed by substrate addition measured after 30 mins by SDS-PAGE based autoradiography
MEF [5] = assay: Growth inhibition of SV40 transformed wild-type Taspase1 expressing MEF after 2 days by MTT ssay; assay type: functional, cell-based; settings: Mus musculus
MCF7 = assay: Growth inhibition of human MCF7 cells expressing Taspase1; assay type: functional, cell-based
T47D = assay: Growth inhibition of human T47D cells expressing Taspase1; assay type: functional, cell-based
[6] = target: T2, Threonine aspartase 1 (Homo sapiens); assay: Inhibition of recombinant Taspase1 (unknown origin) at 10 to 1000 uM using [35S]-methionine labeled human MLL1 (2400-2900 residues) as substrate preincubated for 30 mins followed by substrate addition measured after 30 mins by SDS-PAGE based autoradiography
[7] = target: T2, Threonine aspartase 1 (Homo sapiens); assay: Inhibition of recombinant Taspase1 (unknown origin) up to 0.1 mM using [35S]-methionine labeled human MLL1 (2400-2900 residues) as substrate preincubated for 30 mins followed by substrate addition measured after 30 mins by SDS-PAGE based autoradiography

CC[C@H](C)[C@H](NC(C)=O)C(=O)N[C@@H](CO)C(=O)N[C@@H](CCC(N)=O)C(=O)N[C@@H](CC(C)C)C(=O)N[C@@H](CC(=O)O)C(=O)CCl (Ac-ISQLD-CH2Cl)
> 100 µM: IC50 (Threonine aspartase 1)

O=[As](O)(O)c1ccc(Cc2ccc([As](=O)(O)O)cc2)cc1
active: growth inhibition (GI) (SF-268) | growth inhibition (GI) (MDA-MB-231) | growth inhibition (GI) (SNB-75) | growth inhibition (GI) (SF-539) | growth inhibition (GI) (Hs-578T) | growth inhibition (GI) (U-251) | growth inhibition (GI) (SF-295) | growth inhibition (GI) (BT-549) | inhibition [3] | inhibition [4] | growth inhibition (GI) (MEF [5]) | growth inhibition (GI) (MCF7) | growth inhibition (GI) (T47D)
inactive: growth inhibition (GI) (MEF [1]) | inhibition [2] | inhibition (Caspase-8 (Homo sapiens))

CC[C@H](C)[C@H](NC(=O)[C@H](CCCCN)NC(C)=O)C(=O)N[C@@H](CO)C(=O)N[C@@H](CCC(N)=O)C(=O)N[C@@H](CC(C)C)C(=O)N[C@H](C=O)CC(=O)O (Ac-KISQLD-aldehyde)
> 100 µM: IC50 (Threonine aspartase 1)

O=C(O)Cc1ccc(Oc2ccc(CC(=O)O)cc2)cc1
inactive: inhibition [6]

O=[As](O)(O)O
inactive: inhibition [7]
